We go through 23 compounds from patent publication US20240279233A1, “MACROCYCLIC TAK1 INHIBITORS” (Aqilion AB, priority 2021, published 2024).

SMILES strings stand for the structures. Where two headings read alike, the source gives them in different places.

The experiment addresses human recombinant TAK1-TAB1 Kinase (TAK1 (1-303) and TAB1 (437-end)) (Homo sapiens (Human), UniProt O43318). Description: TAK1 biochemical ADP-Glo kinase assay. Particulars: MBP substrate. Put shortly:
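Inhibition of human recombinant TAK1-TAB1 kinase was measured with a Promega ADP-Glo luminescence assay in 384-well plates. Compounds in 5% DMSO were pre-incubated 10 min with 2 μl TAK1-TAB1 (7.5 ng/μl) in buffer of Tris pH 7.5, MgCl2, DTT and BSA. MBP substrate and ATP were then added for 1 hour at room temperature. ADP-Glo reagent and kinase detection substrate followed, luminescence was read on an Envision, and IC50 came from non-linear regression.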

Where [1] appears, read: 10 μM ATP, read-out: TAK1 Mean IC50 (nM) @ 10 μM ATP.
The mark [2] stands for this setting: 1 mM ATP, read-out: TAK1 Mean IC50 (nM) @ 1 mM ATP.

human recombinant TAK1-TAB1 Kinase (TAK1 (1-303) and TAB1 (437-end)), sequence (O43318 other isoform, or with tags, fused parts or gaps): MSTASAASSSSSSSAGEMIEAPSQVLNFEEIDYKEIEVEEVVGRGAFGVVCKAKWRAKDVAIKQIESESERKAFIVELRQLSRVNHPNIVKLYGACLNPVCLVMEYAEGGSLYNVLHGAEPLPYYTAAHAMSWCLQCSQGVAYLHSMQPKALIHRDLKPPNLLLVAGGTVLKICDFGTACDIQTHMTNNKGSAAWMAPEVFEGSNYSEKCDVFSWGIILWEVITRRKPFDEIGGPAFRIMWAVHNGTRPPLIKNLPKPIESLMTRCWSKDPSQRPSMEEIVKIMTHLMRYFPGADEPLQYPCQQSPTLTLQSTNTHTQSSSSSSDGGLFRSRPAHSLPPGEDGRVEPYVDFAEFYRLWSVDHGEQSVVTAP

Take `Cc1nnc(-c2cccc3c2N2/C(=N/C(=O)c4cccc(c4)C(=O)NCCCC[C@@H]2C)N3)n1C` [Example 96, (S,E)-1^7-(4,5-dimethyl-4H-1,2,4-triazol-3-yl)-11-methyl-1^2,1^3-dihydro-1^1H-2,6-diaza-1(2,1)-benzo[d]imidazola-4(1,3)-benzenacycloundecaphane-3,5-dione]: the IC50 is, setting by setting: under setting [1], 11 nM; under setting [2], 7 nM.

`CN1CCN(Cc2ccc3c(c2)N/C2=N\C(=O)c4ccc(F)c(c4)C(=O)NCCCCCN23)CC1` [Example 103, (E)-4^4-fluoro-1^5-((4-methylpiperazin-1-yl)methyl)-1^2,1^3-dihydro-1^1H-2,6-diaza-1(2,1)-benzo[d]imidazola-4(1,3)-benzenacycloundecaphane-3,5-dione]: the IC50 under setting [1] is 3 nM.

As to `CN1CCN(Cc2ccc3c(c2)N/C2=N\C(=O)c4csc(c4)C(=O)NCCCCCN23)CC1` [Example 104, (1^2E,4^2Z)-1^5-((4-methylpiperazin-1-yl)methyl)-1^2,1^3-dihydro-1^1H-2,6-diaza-1(2,1)-benzo[d]imidazola-4(4,2)-thiophenacycloundecaphane-3,5-dione], the IC50 under setting [1] was found to be 4 nM.

On to `CN1CCN(Cc2ccc3c(c2)N/C2=N\C(=O)c4cc(ccc4F)C(=O)NCCCCCN23)CC1` [Example 105, (E)-4^6-fluoro-1^5-((4-methylpiperazin-1-yl)methyl)-1^2,1^3-dihydro-1^1H-2,6-diaza-1(2,1)-benzo[d]imidazola-4(1,3)-benzenacycloundecaphane-3,5-dione], for which the IC50 under setting [1] amounted to 6 nM.

Regarding `C[C@H]1CCCCNC(=O)c2cccc(c2)C(=O)/N=C2\Nc3cccc(C(=O)N4CC[C@@](C)(O)C4)c3N21` [Example 106, (S,E)-1^7-((R)-3-hydroxy-3-methylpyrrolidine-1-carbonyl)-11-methyl-1^2,1^3-dihydro-1^1H-2,6-diaza-1(2,1)-benzo[d]imidazola-4(1,3)-benzenacycloundecaphane-3,5-dione], under setting [2], the IC50 was found to be 6 nM.

Consider `C[C@H]1CCCCNC(=O)c2cccc(c2)C(=O)/N=C2\Nc3cccc(C(=O)N4CC(OC5CC5)C4)c3N21` [Example 107, (S,E)-1^7-(3-cyclopropoxyazetidine-1-carbonyl)-11-methyl-1^2,1^3-dihydro-1^1H-2,6-diaza-1(2,1)-benzo[d]imidazola-4(1,3)-benzenacycloundecaphane-3,5-dione], for which the IC50 under setting [2] was 4 nM.

As to `C[C@H]1CCCCNC(=O)c2cccc(c2)C(=O)/N=C2\Nc3cccc(C(=O)N4CC(OC(F)(F)F)C4)c3N21` [Example 110, (S,E)-11-methyl-1^7-(3-(trifluoromethoxy)azetidine-1-carbonyl)-1^2,1^3-dihydro-1^1H-2,6-diaza-1(2,1)-benzo[d]imidazola-4(1,3)-benzenacycloundecaphane-3,5-dione], under setting [2], the IC50 was 26 nM.

As to `C[C@H]1CCCCNC(=O)c2cccc(c2)C(=O)/N=C2\Nc3cccc(C(=O)N4C[C@@H]5C[C@H]4CO5)c3N21` [Example 111, (S,E)-1^7-((1S,4S)-2-oxa-5-azabicyclo[2.2.1]heptane-5-carbonyl)-11-methyl-1^2,1^3-dihydro-1^1H-2,6-diaza-1(2,1)-benzo[d]imidazola-4(1,3)-benzenacycloundecaphane-3,5-dione], the IC50 under setting [2] is 24 nM.

Turning to `C[C@H]1CCCCNC(=O)c2cccc(c2)C(=O)/N=C2\Nc3cccc(C(=O)N4C[C@H]5C[C@@H]4CO5)c3N21` [Example 112, (S,E)-1^7-((1R,4R)-2-oxa-5-azabicyclo[2.2.1]heptane-5-carbonyl)-11-methyl-1^2,1^3-dihydro-1^1H-2,6-diaza-1(2,1)-benzo[d]imidazola-4(1,3)-benzenacycloundecaphane-3,5-dione], the IC50 under setting [2] came to 8 nM.

As to `C[C@H]1CCCCNC(=O)c2cccc(c2)C(=O)NC2Nc3cccc(N4CCCC4=O)c3N21` (stereo partly drawn) [Example 113, (S,E)-11-methyl-1^7-(2-oxopyrrolidin-1-yl)-1^2,1^3-dihydro-1^1H-2,6-diaza-1(2,1)-benzo[d]imidazola-4(1,3)-benzenacycloundecaphane-3,5-dione], the IC50 by setting is: under setting [1], 5 nM; under setting [2], 5 nM.

Consider `C[C@H]1CCCCNC(=O)c2cccc(c2)C(=O)/N=C2\Nc3cccc(C(=O)N4CC5(COC5)C4)c3N21` [Example 114, (S,E)-11-methyl-1^7-(2-oxa-6-azaspiro[3.3]heptane-6-carbonyl)-1^2,1^3-dihydro-1^1H-2,6-diaza-1(2,1)-benzo[d]imidazola-4(1,3)-benzenacycloundecaphane-3,5-dione], for which, under setting [2], the IC50 is 10 nM.

Consider `C[C@H]1CCCCNC(=O)c2cccc(c2)C(=O)/N=C2\Nc3cccc(C(=O)N4CCC5(COC5)C4)c3N21` [Example 115, (S,E)-11-methyl-1^7-(2-oxa-6-azaspiro[3.4]octane-6-carbonyl)-1^2,1^3-dihydro-1^1H-2,6-diaza-1(2,1)-benzo[d]imidazola-4(1,3)-benzenacycloundecaphane-3,5-dione], for which the 50% inhibitory concentration (IC50) under setting [2] came out at 11 nM.

Take `C[C@H]1CCCCNC(=O)c2cccc(c2)C(=O)/N=C2\Nc3cccc(C(=O)N4CC5(CCCO5)C4)c3N21` [Example 116, (S,E)-11-methyl-1^7-(5-oxa-2-azaspiro[3.4]octane-2-carbonyl)-1^2,1^3-dihydro-1^1H-2,6-diaza-1(2,1)-benzo[d]imidazola-4(1,3)-benzenacycloundecaphane-3,5-dione]: the IC50 under setting [2] stood at 3 nM.

Regarding `C[C@H]1CCCCNC(=O)c2cccc(c2)C(=O)/N=C2\Nc3cccc(C(=O)N4CC5(C4)CC(F)(F)CO5)c3N21` [Example 117, (S,E)-1^7-(7,7-difluoro-5-oxa-2-azaspiro[3.4]octane-2-carbonyl)-11-methyl-1^2,1^3-dihydro-1^1H-2,6-diaza-1(2,1)-benzo[d]imidazola-4(1,3)-benzenacycloundecaphane-3,5-dione], the half-inhibitory concentration (IC50) under setting [2] came out at 4 nM.

Regarding `[2H]C([2H])([2H])N(C(=O)c1cccc2c1N1/C(=N/C(=O)c3cccc(c3)C(=O)NCCCC[C@@H]1C)N2)C([2H])([2H])[2H]` [Example 118, (S,E)-11-methyl-N,N-bis(methyl-d3)-3,5-dioxo-1^2,1^3-dihydro-1^1H-2,6-diaza-1(2,1)-benzo[d]imidazola-4(1,3)-benzenacycloundecaphane-1^7-carboxamide], the IC50 under setting [2] is 15 nM.

Turning to `C[C@H]1CCCCNC(=O)c2cccc(c2)C(=O)/N=C2\Nc3ccnc(N4CCCC4=O)c3N21` [Example 119, (S,E)-11-methyl-1^4-(2-oxopyrrolidin-1-yl)-1^2,1^3-dihydro-1^1H-2,6-diaza-1(2,3)-imidazo[4,5-c]pyridina-4(1,3)-benzenacycloundecaphane-3,5-dione], the IC50 was determined as 7 nM under setting [1] and 22 nM under setting [2].

With `C[C@H]1CCCCNC(=O)c2cccc(c2)C(=O)/N=C2\Nc3ccnc(N4CCN(C5CC5)C4=O)c3N21` [Example 122, (S,E)-1^4-(3-cyclopropyl-2-oxoimidazolidin-1-yl)-11-methyl-1^2,1^3-dihydro-1^1H-2,6-diaza-1(2,3)-imidazo[4,5-c]pyridina-4(1,3)-benzenacycloundecaphane-3,5-dione], the IC50 came out at 9 nM under setting [1] and 57 nM under setting [2].

Regarding `C[C@H]1CCCCNC(=O)c2cccc(c2)C(=O)/N=C2\Nc3cc(CN4CCN(C)CC4)cc(C(=O)N(C)C)c3N21` [Example 124, (S,E)-N,N,11-trimethyl-1^5-((4-methylpiperazin-1-yl)methyl)-3,5-dioxo-1^2,1^3-dihydro-1^1H-2,6-diaza-1(2,1)-benzo[d]imidazola-4(1,3)-benzenacycloundecaphane-1^7-carboxamide], the IC50 came out at 7 nM under setting [1] and 9 nM under setting [2].

Take `C[C@H]1CCCCNC(=O)c2cccc(c2)C(=O)/N=C2\Nc3cc(CN4CCOCC4)cc(C(=O)N(C)C)c3N21` [Example 125, (S,E)-N,N,11-trimethyl-1^5-(morpholinomethyl)-3,5-dioxo-1^2,1^3-dihydro-1^1H-2,6-diaza-1(2,1)-benzo[d]imidazola-4(1,3)-benzenacycloundecaphane-1^7-carboxamide]: the IC50 was 5 nM under setting [1] and 7 nM under setting [2].

For `C[C@H]1CCCCNC(=O)c2cccc(c2)C(=O)/N=C2\Nc3ccnc(C(=O)N(C)C)c3N21` [Example 128, (S,E)-N,N,11-trimethyl-3,5-dioxo-1^2,1^3-dihydro-1^1H-2,6-diaza-1(2,3)-imidazo[4,5-c]pyridina-4(1,3)-benzenacycloundecaphane-1^4-carboxamide], the IC50 under setting [1] turned out to be 7 nM.

Consider `C[C@H]1CCCCNC(=O)c2cccc(c2)C(=O)/N=C2\Nc3cccc(-c4cn(C5COC5)nn4)c3N21` [Example 129, (S,E)-11-methyl-1^7-(1-(oxetan-3-yl)-1H-1,2,3-triazol-4-yl)-1^2,1^3-dihydro-1^1H-2,6-diaza-1(2,1)-benzo[d]imidazola-4(1,3)-benzenacycloundecaphane-3,5-dione], for which the IC50 under setting [1] turned out to be 6 nM and the half-maximal inhibitory concentration (IC50) under setting [2] was 6 nM.

Turning to `C[C@H]1CCCCNC(=O)c2cccc(c2)C(=O)/N=C2\Nc3ccnc(N4CCN(C)C4=O)c3N21` [Example 130, (S,E)-11-methyl-1^4-(3-methyl-2-oxoimidazolidin-1-yl)-1^2,1^3-dihydro-1^1H-2,6-diaza-1(2,3)-imidazo[4,5-c]pyridina-4(1,3)-benzenacycloundecaphane-3,5-dione], the IC50 by setting is: under setting [1], 7 nM; under setting [2], 27 nM.

`CN(C)C(=O)c1cccc2c1N1/C(=N/C(=O)c3cccc(c3)C(=O)NCCCCC13CC3)N2` [Example 131, (E)-N,N-dimethyl-3′,5′-dioxospiro[cyclopropane-1,11′-2,6-diaza-1(2,1)-benzo[d]imidazola-4(1,3)-benzenacycloundecaphane]-7′-carboxamide]: the IC50 is 5 nM under setting [1] and 13 nM under setting [2].
